From a melting point compilation (Tetko et al.; mined from patent text by program, amines drawn as free bases though some values may be those of a salt)

SMILES | melting point [°C]
Cn1cc(C(=O)NCc2ccc(Cl)cc2)c(=O)c2cc(CN3CCOCC3)cc(C#CCCCO)c21 | 179 to 182
CCOC(=O)CCNC(=O)C(Cc1ccc(-c2ccccc2)cc1)N(CP(=O)(O)O)C(OC(=O)Cc1ccccc1)C(C)C (centres undefined) | 148 to 150
NC(=S)c1cccc2nnsc12 | 129 to 131
O=C(O)c1ccc(Oc2ccc(Oc3ccc(C(=O)O)c(C(=O)O)c3)c(P(=O)(c3ccccc3)c3ccccc3)c2)cc1C(=O)O | 212 to 218
CC1Oc2ccc(CN3CCN(c4nc5c(c(=O)n(C)c(=O)n5C)n4C)CC3)cc2NC1=O (centres undefined) | 130 to 138
CC(C)c1cccc2c1C(=O)N(COC(=O)c1c(Cl)ccc(OCC(=O)O)c1Cl)S2(=O)=O | 210 to 212
O=S1(=O)NCN(C2CC2)c2c(F)cc(F)cc21 | 149 to 151
COc1cc(C)c(Cl)cn1 | 32 to 33
O=c1c2ccc(Cl)cc2[nH]c2c(O)nn(-c3ccc(O)cc3)c(=O)c12 | 316 to 318
Cc1cc(CN2CCN(C)CC2)cc2c1Cc1c(-c3ccsc3)n[nH]c1-2 | 235 to 236
CCN1CCN(C(=O)c2ccc([N+](=O)[O-])cc2C)CC1 | 96 to 99
O=C(O)Cc1cccc(NC(=O)NC2C(=O)N(CC(=O)N3CCCC3)c3ccccc3N(c3ccccc3F)C2=O)c1 (centres undefined) | 197 to 199
O=C(CNC(=O)c1nc2cccc(OC(F)(F)F)c2cc1OCc1ccccc1)OCc1ccccc1 | 123 to 124
Nc1ccc(S(=O)(=O)c2cc(N)nc(Br)c2)cc1 | 204 to 205
COc1cc(COc2nn(-c3ccccc3)cc2/C=C/C(=O)O)ccc1OCc1nc(-c2ccccc2)oc1C | 188 to 189
Cc1cc(O)c(SCC2CCCCC2)c(=O)o1 | 81.5 to 83
CCCC(C(N)=O)C(=O)O (centres undefined) | 137
CN(C)c1ccc(-c2cc(=O)c(C(=O)O)cn2-c2ccc(O)c(O)c2)cc1 | 223 to 227
CC(C)CCC1=Cc2c(F)cc(F)cc2N(C)C1C (centres undefined) | 154 to 155
CC(C)(O)c1ccc(-c2cnc3[nH]c(=O)n(CC4CCOCC4)c3n2)cn1 | 207 to 209
COC(=O)CC(=O)c1cc(F)c(OC)c(F)c1 | 64 to 67
COC(=O)c1ccc(NC(=O)c2cc(C(C)C)c(C(C)C)s2)cc1O | 180 to 181

Now from value to molecule:

melting point [°C] | SMILES
90 to 95 | Cc1nc(-c2cccc(CN3C(=O)C4(COc5cc6c(cc54)OCCO6)c4ccccc43)c2)no1 (centres undefined)
226 to 228 | COc1cc2cc([N+](=O)[O-])c(OCc3ccccc3)cc2oc1=O
> 250 | Clc1ncnc2[nH]nc(-c3ccccc3)c12
270 to 275 | Cc1ccccc1C(=O)Nc1ccc(C(=O)O)cc1
185 to 186 | c1ccc(N2CCOCC2)c(N=C2NCCN2)c1
214 to 218 | CC12CCC(O)CC1=CCC1C2CCC2(C)C(c3cccnc3)=CCC12 (centres undefined)
104 to 106 | CCS(=O)(=O)N(Cc1cccnc1)c1ccc(Cl)cc1
155 to 157 | Cc1[nH]c(C(=O)Nc2ccc3ncsc3c2)c(C)c1-c1nc2ccc(C(=O)c3ccccc3)cc2[nH]1
232 to 237 | CNC(=O)c1ccccc1Nc1nc(Nc2ccc3c(c2)NCCNC3=O)ncc1Cl
246 to 249 | CC(=O)NC1=NCC(c2ccccc2)CN1 (centres undefined)
65 to 67 | CC(=O)Nc1ccc(OC(F)F)c(OC(F)F)c1
153 | CC(c1ccccc1)N1CC2Cc3cc4ccccc4n3CC2C1 (centres undefined)
222 to 223 | COc1ccccc1N1CCN(CCn2c(=O)[nH]c3ccsc3c2=O)CC1
124 to 126 | Cc1ccccc1C(C)Oc1cc(OCc2ccsc2)ccc1C(=O)CC(=O)C(=O)O (racemic)
228 to 229 | CC1=CC(c2cccs2)(C(C)C(=O)O)Nc2ccccc21 (centres undefined)
81 to 83 | O=C(Cc1cccnc1)c1ccc(Oc2ccccc2)cc1
100 | Cc1cccc(NC(=O)NCC(=O)N(CC(=O)N(C)c2ccc(F)cc2F)c2ccccc2)c1
